Test results taken from US20060211733A1, “Methods of preventing and treating opioid bowel dysfunction” (Adolor Corporation, priority 2005, published 2006).

System: opioid-induced bowel dysfunction in non-malignant pain subjects
Test: six-week, randomized, double-blind, placebo-controlled study of three alvimopan dosage regimens
Assay type: in vivo, human
Experimental: A six-week, randomize, double-blind, placebo-controlled study was conducted to evaluate three dosage regimens for [[(2S)-2-[[(3R,4R)-4-(3-hydroxyphenyl)-3,4-dimethylpiperidin-1-yl]methyl]-3-phenylpropanoyl]amino]acetic acid dihydrate (alvimopan) for the treatment of opioid-induced bowel dysfunction in non-malignant pain subjects, including an evaluation of the improvement of spontaneous bowel movement (SBM) frequency compared to placebo while maintaining an acceptable tolerability profile.
Subjects meeting the initial screening criteria for the study population, and who had been administered chronic opioid therapy for non-malignant pain, were selected.

Structure (SMILES): C[C@H]1CN(C[C@H](Cc2ccccc2)C(=O)NCC(=O)O)CC[C@@]1(C)c1cccc(O)c1.O.O [alvimopan, [[(2S)-2-[[(3R,4R)-4-(3-hydroxyphenyl)-3,4-dimethylpiperidin-1-yl]methyl]-3-phenylpropanoyl]amino]acetic acid dihydrate]
- efficacy (0.5 mg BID): comparable to 1 mg QD or 1 mg BID
- safety profile (0.5 mg BID): comparable to the placebo
- primary and key secondary endpoints (spontaneous bowel movement frequency) compared to placebo (all three doses (0.5 mg BID, 1 mg QD, 1 mg BID), subjects on chronic opioid therapy): significantly better, both clinically and statistically, than the placebo
- tolerability (all treatment arms): well-tolerated
- analgesic antagonism (based on changes in pain scores or opioid consumption during the study): no evidence of analgesic antagonism
- rebound post active treatment (non-treatment follow-up period): no evidence of rebound
- tachyphylaxis (over six-week treatment period): no evidence of tachyphylaxis
- onset and duration of treatment effects (six-week treatment period): significant at week 1 and were sustained over the entire six-week treatment period
